Columns and labels:
distal colon blood flow [1] = assay: Blood flow-increasing effects of components in crude drugs (2): 6-shogaol; type: in vivo, rat; details: for Rate of increase in VC: into the colon, mg/kg: 6-shogaol 2, ginsenoside Rb1 1
Procedure: Male SD rats (8 to 10 weeks of age) were used. 6-Shogaol was added to a 1% aqueous solution of Tween 80 to obtain a concentration of 0.4 mg/mL, and the resulting solution was used as a test specimen. Furthermore, ginsenoside Rb1 and 6-shogaol were added to a 1% aqueous solution of Tween 80 at concentrations of 0.2 mg/mL and 0.4 mg/mL, respectively, to prepare test specimens. After preliminarily placing an 18 G Surflo indwelling needle inserted through the caecum, 5 mL/kg portions of test specimens which had been kept warm at 37° C. were administered into the colon 0.5 to 1 hour later, by which time baseline blood flow had stabilized. A control group was administered 1% aqueous solution of Tween 80.
(§1) A polyethylene tube with an inner diameter of 0.8 mm was inserted through the left common carotid artery of an anesthetized rat, and the tip was left indwelling in the left ventricle. A tracheal cannula was placed indwelling in the trachea and connected to a respirator (SN-480-7); artificial respiration was then performed at a frequency of 60 RPM. Body temperature was maintained at 37±0.5° C. by a temperature controller (NS-TC10).

distal colon blood flow [2] = assay: Blood flow-increasing effects of components in crude drugs (1): hydroxysanshool, ginsenosides; type: in vivo, rat; details: for Rate of increase in VC: into the colon, mg/kg: H-sanshool 0.3, ginseng 30, ginsenoside Rb1 1, ginsenoside Rg1 1, mean
Procedure: Male SD rats (8 to 10 weeks of age, body weight 240 to 360 g) were used (n=2 to 6). Hydroxy-β-sanshool, ginsenoside Rb1, or ginsenoside Rg1 was added to a 1% aqueous solution of Tween 80 to obtain concentrations of 0.06 mg/mL, 0.2 mg/mL, and 0.2 mg/mL, respectively, and the resulting solutions were used as the respective test specimens for administration of individual crude drug components. Furthermore, test specimens for the administration of hydroxysanshool with a ginseng extract, ginsenoside Rb1, or ginsenoside Rg1 in combination were prepared by adding, to a 1% aqueous solution of Tween 80, hydroxysanshool at a concentration of 0.06 mg/mL, and a powdered ginseng extract, ginsenoside Rb1, or ginsenoside Rg1 at a concentration of 6 mg/mL, 0.2 mg/mL, or 0.2 mg/mL, respectively. After preliminarily placing an 18 G Surflo indwelling needle inserted through the caecum, 5 mL/kg portions of test specimens which had been kept warm at 37° C. were administered into the colon 0.5 to 1 hour later, by which time baseline blood flow had stabilized. A control group was administered a 1% aqueous solution of Tween 80.
as §1, with “(NS-TC10). […] The results of measurement are expressed as the mean value±standard error (S.E.M.). Comparison of effects was performed by one-way analysis of variance (ANOVA), followed by the Scheffe multiple comparison test. A risk rate of 5% or less was employed as the significance level.” for “(NS-TC10).”

Compound	Rate of increase in VC (distal colon blood flow [1]; 15 min) [%]	Rate of increase in VC (distal colon blood flow [1]; 30 min) [%]	Rate of increase in VC (distal colon blood flow [1]; 45 min) [%]	Rate of increase in VC (distal colon blood flow [1]; 60 min) [%]	Rate of increase in VC (distal colon blood flow [1]; 75 min) [%]	Rate of increase in VC (distal colon blood flow [1]; 90 min) [%]	Blood flow increase (in words) (distal colon blood flow [1]; Example 5, administration into the colon)	Time of peak increase in blood flow (distal colon blood flow [1]; after administration into the colon) [min]	Rate of increase in VC (distal colon blood flow [2]; 15 min) [%]	Rate of increase in VC (distal colon blood flow [2]; 30 min) [%]	Rate of increase in VC (distal colon blood flow [2]; 45 min) [%]	Rate of increase in VC (distal colon blood flow [2]; 60 min) [%]	Rate of increase in VC (distal colon blood flow [2]; 75 min) [%]	Rate of increase in VC (distal colon blood flow [2]; 90 min) [%]	Blood flow / VC increase (in words) (distal colon blood flow [2]; Example 4, administration into the colon)
CCCCC/C=C/C(=O)CCc1ccc(O)c(OC)c1 [6-Shogaol, 6-shogaol]	58.32	61.20	53.07	42.55	46.68	32.92	induced an increase in blood flow	30							
CC(C)=CCC[C@](C)(O[C@@H]1O[C@H](CO[C@@H]2O[C@H](CO)[C@@H](O)[C@H](O)[C@H]2O)[C@@H](O)[C@H](O)[C@H]1O)[C@H]1CC[C@]2(C)[C@@H]1[C@H](O)C[C@@H]1[C@@]3(C)CC[C@H](O[C@@H]4O[C@H](CO)[C@@H](O)[C@H](O)[C@H]4O[C@@H]4O[C@H](CO)[C@@H](O)[C@H](O)[C@H]4O)C(C)(C)[C@@H]3CC[C@]12C [Ginsenoside Rb1, ginsenoside Rb1]									11.72	18.87	60.21	26.20	40.81	19.98	
CC(C)=CCC[C@](C)(O[C@@H]1O[C@H](CO)[C@@H](O)[C@H](O)[C@H]1O)[C@H]1CC[C@]2(C)[C@@H]1[C@H](O)C[C@@H]1[C@@]3(C)CC[C@H](O)C(C)(C)[C@@H]3[C@@H](O[C@@H]3O[C@H](CO)[C@@H](O)[C@H](O)[C@H]3O)C[C@]12C [Ginsenoside Rg1, ginsenoside Rg1]									−10.83	5.84	16.29	10.92	12.25	18.11	
C/C=C/C=C/C=C/CC/C=C/C(=O)NCC(C)(C)O [H-sanshool, Hydroxy-β-sanshool]									3.89	5.79	2.09	9.46	8.58	4.19	did not increase blood flow
